PubChem BioAssay (NCI)
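Tested at 5 concentrations; 48 h exposure; 96-well plates; endpoints linearly interpolated, else capped at highest concentration. TGI is the concentration that stops growth completely.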

Key:
Test in all cases: inhibition of tumour cell growth, NCI panel, 48 h
M19-MEL melanoma = test system: M19-MEL melanoma
DLD-1 colon = test system: DLD-1 colon
DMS 273 small cell lung = test system: DMS 273 small cell lung
XF 498 CNS = test system: XF 498 CNS
SNB-78 CNS = test system: SNB-78 CNS
DMS 114 small cell lung = test system: DMS 114 small cell lung
LXFL 529 NSCLC = test system: LXFL 529 NSCLC
HOP-18 NSCLC = test system: HOP-18 NSCLC
RXF-631 renal = test system: RXF-631 renal

Row | Compound | TGI (M19-MEL melanoma) [µM] | TGI (DLD-1 colon) [µM] | TGI (DMS 273 small cell lung) [µM] | TGI (XF 498 CNS) [µM] | TGI (SNB-78 CNS) [µM] | TGI (DMS 114 small cell lung) [µM] | TGI (LXFL 529 NSCLC) [µM] | TGI (HOP-18 NSCLC) [µM] | TGI (RXF-631 renal) [µM]
1 | CCCCNC(=O)CCN(C(=O)O)S(=O)(=O)c1ccc(NC(=O)c2ccccc2)cc1 | > 100 | > 100 | 86.5 | > 100 | > 100 | > 100 | > 100 | > 100 | –
2 | COC(=O)CCc1cccnc1/C=N/O | > 100 | > 100 | > 100 | – | > 100 | > 100 | > 100 | > 100 | > 100
3 | Cc1nc(Nc2ccccc2)sc1C(=O)NNc1ccc([N+](=O)[O-])cc1[N+](=O)[O-] | > 100 | > 100 | > 100 | 55.3 | > 100 | 65.8 | > 100 | > 100 | –
4 | CCCCCCCCCCCC(O)=C1C(=O)CC(O)CC1=O (stereo not given) | > 100 | – | > 100 | > 100 | > 100 | > 100 | > 100 | > 100 | > 100
5 | Brc1ccc2c(c1)C1C(CO2)C(c2ccccc2)=NN1c1ccccc1 (stereo not given) | > 100 | > 100 | > 100 | > 100 | > 100 | > 100 | > 100 | > 100 | –
6 | Cn1nc2ccc3nccc(N(CCO)CCO)c3c2n1 | > 100 | > 100 | > 100 | > 100 | > 100 | – | > 100 | > 100 | –
7 | COc1ccc(N2C(=O)[C@@H]3[C@H](C2=O)c2[nH]c4ccccc4c2C2CCC(C(C)(C)C)C[C@@H]23)cc1 (stereo not given in full) | > 100 | > 100 | > 77.9 | > 100 | 59.5 | – | > 100 | – | –
8 | CCCCCCCCCCCCn1[nH]c(C)c(C(=S)SCCCCCCCC)c1=O | 67.7 | > 94.6 | > 100 | > 100 | > 100 | > 79.4 | > 100 | > 100 | > 100
9 | CCc1cccc(CC)c1NC(=O)C1=C(C)NC(C)=C(C(=O)Nc2c(CC)cccc2CC)C1c1ccc2c(c1)OCO2 | 30.9 | 50.3 | 26 | – | 52.3 | – | 29.3 | 61.2 | –
10 | CCCCCCCCCCCC(=O)c1c(O)cccc1O | 34.5 | 33.8 | 34 | 32.4 | 43.9 | 34 | 32.6 | 31 | 35.5
11 | CN(C)CC1(Cc2ccccc2)CCC(Cc2ccccc2)C1=O (stereo not given) | 32 | 8.26 | 29 | 36.3 | 43.4 | 36.4 | 7.32 | 21.3 | –
12 | CC(C)(Oc1ccc2c(=O)cc(-c3ccccc3)oc2c1)C(=O)Nc1c(Cl)cccc1Cl | > 100 | – | > 100 | 72.2 | > 100 | > 100 | > 100 | > 100 | –
13 | Cc1cccc(C)c1NC(=O)CCC(=O)NC(N)=S | > 100 | > 100 | – | – | – | – | > 100 | > 100 | –
14 | CC1C=C[C@H](Sc2ccccc2)CC[C@@]1(C)O (stereo not given in full) | > 100 | > 100 | – | – | > 100 | > 100 | > 100 | – | –
15 | O=C(O)Cn1c(=O)[nH]c(=O)c2[nH]cnc21 | > 100 | > 100 | > 100 | – | > 100 | > 100 | > 100 | > 100 | > 100
16 | CCc1cccc(C(C)CC)c1NC(=O)C(=O)C(CC(=O)Nc1ccc(Cl)c(Cl)c1)C(=O)OC (stereo not given) | > 100 | > 100 | 55.9 | – | > 100 | > 100 | > 100 | – | –
17 | COc1cc(C)c(C)c(OC(=O)c2c(C)c(C)c(OC)c(C)c2OC)c1C | 46.6 | > 100 | 20.6 | 40 | > 100 | 15.5 | > 100 | > 100 | 69.1
18 | C/C(CC(=O)NC1=CC=C(NC(=O)C/C(C)=N\Nc2ccccc2)CC1)=N/Nc1ccccc1 | > 100 | > 100 | > 100 | > 100 | > 100 | > 100 | > 100 | > 100 | > 100
19 | O=S(=O)(O)c1cc(N=Nc2cc(S(=O)(=O)O)c3cccnc3c2O)ccc1/C=C/c1ccc(N=Nc2cc(S(=O)(=O)O)c3cccnc3c2O)cc1S(=O)(=O)O | > 100 | > 100 | > 100 | > 100 | > 100 | > 100 | > 100 | > 100 | > 100
20 | Cc1nc2c(n1CCN(C)C)C(=O)c1ccccc1C2=O | 4.3 | 26.9 | 28.8 | 33.1 | 78.9 | – | 37.3 | – | –
21 | CC(C(=O)c1ccc(Cl)cc1)C1OC(=O)C(Cl)=C1Cl (stereo not given) | 52.3 | 49.9 | – | 84.1 | – | 76.7 | 40.6 | > 100 | > 100
22 | N#CC(C(=N/NC(N)=S)/C(=N/NC(N)=S)C(C#N)c1ccc(Cl)cc1)c1ccc(Cl)cc1 (stereo not given) | > 100 | > 100 | > 100 | > 100 | > 100 | > 100 | > 100 | > 100 | –
23 | CSc1nc2c(c(O)c(C)c(=O)n2C2OCC(OC(C)=O)C(OC(C)=O)C2OC(C)=O)c(=O)n1C (stereo not given) | > 100 | > 100 | – | – | > 100 | > 100 | > 100 | – | –
24 | COC(=O)C1N=CSCC1(C)O (stereo not given) | > 100 | > 100 | – | > 100 | > 100 | > 100 | – | > 100 | –
25 | COC(=O)NC(=O)c1cn(CCCOC(=O)CCCCCCCCC(=O)OCCCn2cc(C(=O)NC(=O)OC)c(=O)[nH]c2=O)c(=O)[nH]c1=O | > 100 | > 100 | > 100 | 58.8 | > 100 | > 100 | > 100 | > 100 | > 100
26 | CCN(CC)Cc1cc(Nc2c3ccccc3nc3c4ccccc4n(C)c23)ccc1O | 19 | 21 | 17.9 | 17.1 | 41.2 | 19.5 | 14.7 | 27.1 | 13.8
27 | COc1ccc(NC(=O)CC(=O)N/N=C/c2ccc(N(CCC#N)S(=O)(=O)c3ccccc3)cc2)cc1 | > 100 | > 100 | – | > 100 | > 100 | > 100 | > 100 | > 100 | > 100
